{"source": "PubChem BioAssay AID1259407", "about": "(Chemical Carcinogenesis Research Information System (CCRIS), 2018)", "tested_on": "CCRIS mutagenicity, Ames/micronucleus/aberration tests", "assay": "CCRIS mutagenicity studies", "key": {"[1]": {"conditions": "Test System: AMES SALMONELLA TYPHIMURIUM, Strain/Indicator: TA98, Metabolic Activation: NONE, Method: PREINCUBATION"}, "[2]": {"conditions": "Test System: AMES SALMONELLA TYPHIMURIUM, Strain/Indicator: TA100, Metabolic Activation: NONE, Method: PREINCUBATION"}, "[3]": {"conditions": "Test System: AMES SALMONELLA TYPHIMURIUM, Strain/Indicator: TA1535, Metabolic Activation: HAMSTER, LIVER, S-9, AROCLOR 1254, Method: STANDARD PLATE"}, "[4]": {"conditions": "Test System: AMES SALMONELLA TYPHIMURIUM, Strain/Indicator: TA1535, Metabolic Activation: NONE, Method: STANDARD PLATE"}}, "note": "Calls of active or inactive are those of the source. No rule for the calls is given here.", "data": [{"compound": "C1CCC2CCCCC2C1", "note": "(stereo not drawn)", "values": [{"measurement": "mutagenic call", "setting": "End Point: IN VIVO MICRONUCLEUS, Test System: PERIPHERAL BLOOD LYMPHOCYTES, Species: MOUSE, Strain/Sex: B6C3F1/FEMALE, Route: INHALATION", "result": "inactive; negative"}, {"measurement": "mutagenic call", "setting": "End Point: IN VIVO MICRONUCLEUS, Test System: PERIPHERAL BLOOD LYMPHOCYTES, Species: MOUSE, Strain/Sex: B6C3F1/MALE, Route: INHALATION", "result": "active; positive"}, {"measurement": "mutagenic call", "setting": "Test System: AMES SALMONELLA TYPHIMURIUM, Strain/Indicator: TA97, Metabolic Activation: HAMSTER, LIVER, S-9 (10%), AROCLOR 1254, Method: PREINCUBATION", "result": "inactive; negative"}, {"measurement": "mutagenic call", "setting": "Test System: AMES SALMONELLA TYPHIMURIUM, Strain/Indicator: TA97, Metabolic Activation: HAMSTER, LIVER, S-9 (30%), AROCLOR 1254, Method: PREINCUBATION", "result": "inactive; negative"}, {"measurement": "mutagenic call", "setting": "Test System: AMES SALMONELLA TYPHIMURIUM, Strain/Indicator: TA97, Metabolic Activation: NONE, Method: PREINCUBATION", "result": "inactive; negative"}, {"measurement": "mutagenic call", "setting": "Test System: AMES SALMONELLA TYPHIMURIUM, Strain/Indicator: TA97, Metabolic Activation: RAT, LIVER, S-9 (10%), AROCLOR 1254, Method: PREINCUBATION", "result": "inactive; negative"}, {"measurement": "mutagenic call", "setting": "Test System: AMES SALMONELLA TYPHIMURIUM, Strain/Indicator: TA97, Metabolic Activation: RAT, LIVER, S-9 (30%), AROCLOR 1254, Method: PREINCUBATION", "result": "inactive; negative"}, {"measurement": "mutagenic call", "setting": "Test System: AMES SALMONELLA TYPHIMURIUM, Strain/Indicator: TA98, Metabolic Activation: HAMSTER, LIVER, S-9 (10%), AROCLOR 1254, Method: PREINCUBATION", "result": "inactive; negative"}, {"measurement": "mutagenic call", "setting": "Test System: AMES SALMONELLA TYPHIMURIUM, Strain/Indicator: TA98, Metabolic Activation: HAMSTER, LIVER, S-9 (30%), AROCLOR 1254, Method: PREINCUBATION", "result": "inactive; negative"}, {"measurement": "mutagenic call", "setting": "Test System: AMES SALMONELLA TYPHIMURIUM, Strain/Indicator: TA98, Metabolic Activation: HAMSTER, LIVER, S-9, AROCLOR 1254, Method: STANDARD PLATE", "result": "inactive; negative"}, {"measurement": "mutagenic call", "setting": "[1]", "result": "inactive; negative"}, {"measurement": "mutagenic call", "setting": "Test System: AMES SALMONELLA TYPHIMURIUM, Strain/Indicator: TA98, Metabolic Activation: NONE, Method: STANDARD PLATE", "result": "inactive; negative"}, {"measurement": "mutagenic call", "setting": "Test System: AMES SALMONELLA TYPHIMURIUM, Strain/Indicator: TA98, Metabolic Activation: RAT, LIVER, S-9 (10%), AROCLOR 1254, Method: PREINCUBATION", "result": "inactive; negative"}, {"measurement": "mutagenic call", "setting": "Test System: AMES SALMONELLA TYPHIMURIUM, Strain/Indicator: TA98, Metabolic Activation: RAT, LIVER, S-9 (30%), AROCLOR 1254, Method: PREINCUBATION", "result": "inactive; negative"}, {"measurement": "mutagenic call", "setting": "Test System: AMES SALMONELLA TYPHIMURIUM, Strain/Indicator: TA98, Metabolic Activation: RAT, LIVER, S-9, AROCLOR 1254, Method: STANDARD PLATE", "result": "inactive; negative"}, {"measurement": "mutagenic call", "setting": "Test System: AMES SALMONELLA TYPHIMURIUM, Strain/Indicator: TA100, Metabolic Activation: HAMSTER, LIVER, S-9 (10%), AROCLOR 1254, Method: PREINCUBATION", "result": "inactive; negative"}, {"measurement": "mutagenic call", "setting": "Test System: AMES SALMONELLA TYPHIMURIUM, Strain/Indicator: TA100, Metabolic Activation: HAMSTER, LIVER, S-9 (30%), AROCLOR 1254, Method: PREINCUBATION", "result": "inactive; negative"}, {"measurement": "mutagenic call", "setting": "Test System: AMES SALMONELLA TYPHIMURIUM, Strain/Indicator: TA100, Metabolic Activation: HAMSTER, LIVER, S-9, AROCLOR 1254, Method: STANDARD PLATE", "result": "inactive; negative"}, {"measurement": "mutagenic call", "setting": "[2]", "result": "inactive; negative; precipitation occurred at 333 ug/plate"}, {"measurement": "mutagenic call", "setting": "Test System: AMES SALMONELLA TYPHIMURIUM, Strain/Indicator: TA100, Metabolic Activation: NONE, Method: STANDARD PLATE", "result": "inactive; negative"}, {"measurement": "mutagenic call", "setting": "Test System: AMES SALMONELLA TYPHIMURIUM, Strain/Indicator: TA100, Metabolic Activation: RAT, LIVER, S-9 (10%), AROCLOR 1254, Method: PREINCUBATION", "result": "inactive; negative"}, {"measurement": "mutagenic call", "setting": "Test System: AMES SALMONELLA TYPHIMURIUM, Strain/Indicator: TA100, Metabolic Activation: RAT, LIVER, S-9 (30%), AROCLOR 1254, Method: PREINCUBATION", "result": "inactive; negative"}, {"measurement": "mutagenic call", "setting": "Test System: AMES SALMONELLA TYPHIMURIUM, Strain/Indicator: TA100, Metabolic Activation: RAT, LIVER, S-9, AROCLOR 1254, Method: STANDARD PLATE", "result": "inactive; negative"}, {"measurement": "mutagenic call", "setting": "Test System: AMES SALMONELLA TYPHIMURIUM, Strain/Indicator: TA1535, Metabolic Activation: HAMSTER, LIVER, S-9 (10%), AROCLOR 1254, Method: PREINCUBATION", "result": "inactive; negative"}, {"measurement": "mutagenic call", "setting": "Test System: AMES SALMONELLA TYPHIMURIUM, Strain/Indicator: TA1535, Metabolic Activation: HAMSTER, LIVER, S-9 (30%), AROCLOR 1254, Method: PREINCUBATION", "result": "inactive; negative"}, {"measurement": "mutagenic call", "setting": "[3]", "result": "inactive; negative"}, {"measurement": "mutagenic call", "setting": "Test System: AMES SALMONELLA TYPHIMURIUM, Strain/Indicator: TA1535, Metabolic Activation: NONE, Method: PREINCUBATION", "result": "inactive; negative"}, {"measurement": "mutagenic call", "setting": "[4]", "result": "inactive; negative"}, {"measurement": "mutagenic call", "setting": "Test System: AMES SALMONELLA TYPHIMURIUM, Strain/Indicator: TA1535, Metabolic Activation: RAT, LIVER, S-9 (10%), AROCLOR 1254, Method: PREINCUBATION", "result": "inactive; negative"}, {"measurement": "mutagenic call", "setting": "Test System: AMES SALMONELLA TYPHIMURIUM, Strain/Indicator: TA1535, Metabolic Activation: RAT, LIVER, S-9 (30%), AROCLOR 1254, Method: PREINCUBATION", "result": "inactive; negative"}, {"measurement": "mutagenic call", "setting": "Test System: AMES SALMONELLA TYPHIMURIUM, Strain/Indicator: TA1535, Metabolic Activation: RAT, LIVER, S-9, AROCLOR 1254, Method: STANDARD PLATE", "result": "inactive; negative"}, {"measurement": "mutagenic call", "setting": "Test System: AMES SALMONELLA TYPHIMURIUM, Strain/Indicator: TA1537, Metabolic Activation: HAMSTER, LIVER, S-9, AROCLOR 1254, Method: STANDARD PLATE", "result": "inactive; negative"}, {"measurement": "mutagenic call", "setting": "Test System: AMES SALMONELLA TYPHIMURIUM, Strain/Indicator: TA1537, Metabolic Activation: NONE, Method: STANDARD PLATE", "result": "inactive; negative"}, {"measurement": "mutagenic call", "setting": "Test System: AMES SALMONELLA TYPHIMURIUM, Strain/Indicator: TA1537, Metabolic Activation: RAT, LIVER, S-9, AROCLOR 1254, Method: STANDARD PLATE", "result": "inactive; negative"}, {"measurement": "mutagenic call", "setting": "Test System: AMES SALMONELLA TYPHIMURIUM, Strain/Indicator: TA1538, Metabolic Activation: HAMSTER, LIVER, S-9, AROCLOR 1254, Method: STANDARD PLATE", "result": "inactive; negative"}, {"measurement": "mutagenic call", "setting": "Test System: AMES SALMONELLA TYPHIMURIUM, Strain/Indicator: TA1538, Metabolic Activation: NONE, Method: STANDARD PLATE", "result": "inactive; negative"}, {"measurement": "mutagenic call", "setting": "Test System: AMES SALMONELLA TYPHIMURIUM, Strain/Indicator: TA1538, Metabolic Activation: RAT, LIVER, S-9, AROCLOR 1254, Method: STANDARD PLATE", "result": "inactive; negative"}, {"measurement": "mutagenic call", "setting": "Test System: MOUSE LYMPHOMA, Strain/Indicator: L5178Y (TK+/TK-), Metabolic Activation: NONE, Method: SUSPENSION/PLATE", "result": "inactive; negative. reevaluation of results: negative"}, {"measurement": "mutagenic call", "setting": "Test System: MOUSE LYMPHOMA, Strain/Indicator: L5178Y (TK+/TK-), Metabolic Activation: RAT, LIVER, S-9, AROCLOR 1254, Method: SUSPENSION/PLATE", "result": "inactive; negative. reevaluation of results: negative"}]}, {"compound": "CN(Cc1cccc(C#N)c1)N=O", "values": [{"measurement": "mutagenic call", "setting": "[3]", "result": "active; positive"}, {"measurement": "mutagenic call", "setting": "[4]", "result": "active; positive"}]}, {"compound": "O=C(O)CC(Cl)C(=O)O", "note": "(stereo not drawn)", "values": [{"measurement": "mutagenic call", "setting": "Test System: AMES SALMONELLA TYPHIMURIUM, Strain/Indicator: TA98, Metabolic Activation: NONE", "result": "inactive; negative"}, {"measurement": "mutagenic call", "setting": "Test System: AMES SALMONELLA TYPHIMURIUM, Strain/Indicator: TA98, Metabolic Activation: RAT, LIVER, S-9, AROCLOR 1254", "result": "inactive; negative"}, {"measurement": "mutagenic call", "setting": "Test System: AMES SALMONELLA TYPHIMURIUM, Strain/Indicator: TA100, Metabolic Activation: NONE", "result": "inactive; negative"}, {"measurement": "mutagenic call", "setting": "Test System: AMES SALMONELLA TYPHIMURIUM, Strain/Indicator: TA100, Metabolic Activation: RAT, LIVER, S-9, AROCLOR 1254", "result": "inactive; negative"}, {"measurement": "mutagenic call", "setting": "Test System: AMES SALMONELLA TYPHIMURIUM, Strain/Indicator: TA102, Metabolic Activation: NONE", "result": "inactive; negative"}, {"measurement": "mutagenic call", "setting": "Test System: AMES SALMONELLA TYPHIMURIUM, Strain/Indicator: TA102, Metabolic Activation: RAT, LIVER, S-9, AROCLOR 1254", "result": "inactive; negative"}, {"measurement": "mutagenic call", "setting": "Test System: AMES SALMONELLA TYPHIMURIUM, Strain/Indicator: TA104, Metabolic Activation: NONE", "result": "inactive; negative"}, {"measurement": "mutagenic call", "setting": "Test System: AMES SALMONELLA TYPHIMURIUM, Strain/Indicator: TA104, Metabolic Activation: RAT, LIVER, S-9, AROCLOR 1254", "result": "inactive; negative"}]}, {"compound": "c1ccc2cnccc2c1", "values": [{"measurement": "mutagenic call", "setting": "[1]", "result": "inactive; negative"}, {"measurement": "mutagenic call", "setting": "Test System: AMES SALMONELLA TYPHIMURIUM, Strain/Indicator: TA98, Metabolic Activation: RAT, LIVER, S-9, Method: PREINCUBATION", "result": "inactive; negative"}, {"measurement": "mutagenic call", "setting": "[2]", "result": "inactive; negative"}, {"measurement": "mutagenic call", "setting": "Test System: AMES SALMONELLA TYPHIMURIUM, Strain/Indicator: TA100, Metabolic Activation: RAT, LIVER, S-9, Method: PREINCUBATION", "result": "inactive; negative"}]}]}
